From ChEMBL document CHEMBL3045659, “Molecular docking studies on analogues of quercetin with d-alanine:d-alanine ligase of Helicobacter pylori” (Med Chem Res, 2013) come the findings set out here.

pIC50, pKd, pKi: −log10 of the molar value. ≈ marks a conversion by molar mass, not a printed value. Where only a bound is given, the exact number is not on record here.

In test [1] the target is T1, D-alanine--D-alanine ligase (Helicobacter pylori (strain HPAG1), UniProt Q1CTD3).
T1 sequence (Q1CTD3 whole entry): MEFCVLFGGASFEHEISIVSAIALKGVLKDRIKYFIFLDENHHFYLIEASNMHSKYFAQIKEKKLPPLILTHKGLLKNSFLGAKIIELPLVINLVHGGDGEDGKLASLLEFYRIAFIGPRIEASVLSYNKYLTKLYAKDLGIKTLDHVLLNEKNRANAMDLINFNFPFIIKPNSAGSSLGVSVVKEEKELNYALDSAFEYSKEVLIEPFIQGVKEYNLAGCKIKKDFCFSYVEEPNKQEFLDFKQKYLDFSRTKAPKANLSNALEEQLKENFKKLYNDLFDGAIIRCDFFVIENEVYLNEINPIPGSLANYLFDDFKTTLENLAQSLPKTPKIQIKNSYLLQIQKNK
Kind of test: Binding affinity to Helicobacter pylori Ddl by surface plasmon resonance biosensor technology.

The test system of test [2] is Escherichia coli. Nature of the test: Antibacterial activity against Escherichia coli 25922 assessed as growth inhibition. In kind it is functional.
The test system of test [3] is Helicobacter pylori. Nature of the test: Antibacterial activity against Helicobacter pylori 43504 assessed as growth inhibition. It counts as functional.
Test [4] concerns Escherichia coli. Kind of test: Antibacterial activity against Escherichia coli JM019 assessed as growth inhibition. In kind it is functional.
Test [5] deals with Helicobacter pylori. Nature of the test: Antibacterial activity against Helicobacter pylori SS1 assessed as growth inhibition. It counts as functional.
Test [6] has as its target T1, D-alanine--D-alanine ligase. Kind of test: Competitive inhibition of Helicobacter pylori Ddl using ATP as substrate.
The target of test [7] is D-alanine--D-alanine ligase B (Escherichia coli K-12, UniProt P07862). Kind of test: Competitive inhibition of Escherichia coli DdlB using ATP as substrate.

`O=c1c(O)c(-c2ccc(O)c(O)c2)oc2cc(O)cc(O)c12` [QUERCETIN] showed a negative logarithm of the Kd (pKd) in test [1] of 4.89. In addition, the minimal inhibitory concentration (MIC) amounted to 300 µg/mL (≈ 993 µM) in test [2], 100 µg/mL (≈ 331 µM) in test [3], 300 µg/mL (≈ 993 µM) in test [4] and 200 µg/mL (≈ 662 µM) in test [5]. The results for the negative-log IC50 (pIC50) in test [6] and in test [7] were 4.31 and 4.70, respectively. For the same compound, the pKi in test [6] was 5.37.

With `O=c1cc(-c2ccc(O)cc2)oc2cc(O)cc(O)c12` [APIGENIN], the MIC is more than 200 µg/mL in test [2], 25 µg/mL (≈ 92.5 µM) in test [3], 200 µg/mL (≈ 740 µM) in test [4] and 25 µg/mL (≈ 92.5 µM) in test [5]. The negative logarithm of the IC50 (pIC50) in test [6] was 3.88; in test [7], 3.79. The compound further had a pKi in test [6] of 4.51.
